Laboratory results reported in patent US6403575B1, “3-Pyridyl enantiomers and their use as analgesics” (Abbott Laboratories, priority 1996, dated 2002).
Structures can show the parent of a compound that is named as a salt.

Legend:
beagle dogs = type: in vivo; conditions: anesthetized dog, i.v. bolus 10 nmol/kg
Experimental: Male beagle dogs were anesthetized with pentobarbital (35 mg/kg, i.v.) followed by constant i.v. infusion of pentobarbital (5 mg/kg/h). The animals were ventilated with room air by means of a mechanical respiration pump. Blood pressure was measured using a dual tip micromanometer catheter (Millar, Model SPC-770, 7F) inserted into the heart left ventricle via the carotid artery. Compounds were injected into the right femoral vein via catheter. Hemodynamic variables were computed using XYZ Real Time Spreadsheet software on a signal processing workstation (Modular Instruments, Inc.). Sixty minutes were allowed following surgery to achieve a steady-state baseline for the measured variables. Test compounds were administered by i.v. bolus (10 nmol/kg) and compared for their relative ability to elicit changes in blood pressure and heart rate over a five minute data collection period.

rats [1] = experiment: Paw Thermal Stimulator (Hotbox) Model; type: in vivo; conditions: rat, i.p., tested 0.62 to 6.2 μmol/kg
Source text: For assessing nociceptive responses to an acute thermal stimulus, a commercially available paw thermal stimulator was utilized (Anesthesiology Research Laboratory, Department of Anesthesiology, University of California at San Diego, La Jolla, Calif.). This device has been previously described (Dirig, D. M. and Yaksh, T. L., Pain, 62: 321-328, 1995) and is based on the initial work of Hargreaves et al. (Pain, 32: 77-88, 1988). Rats were placed in Plexiglas cubicles that were located on a glass surface of the apparatus. The surface of the glass was maintained at 30° C. A thermal stimulus was applied to the bottom of the rear foot of the rat via a movable focused projection bulb. The stimulus current was maintained at 4.8 Amps. The latency until the animal moved its foot from the stimulus was recorded automatically by use of photodiode motion sensors. In the current studies, a 20 second cut-off was employed to limit possible tissue damage following exposure to the stimulus.
All studies began with a 20 min acclimation period. Following the acclimation period, a baseline measure was determined for each animal. Following determination of baseline, treatments were administered and measures were taken at various time points following treatment (e.g., 15, 30, and 45 min). For clarity, data were collapsed over time for statistical analysis (unless otherwise noted).
Stock solutions of compounds were prepared in absolute ethanol at a concentration of 62 μmol/ml. From this, solutions were made with 10% ethanol, and dosed by injection i.p. Compounds were tested in the dose range of from 0.62 to 6.2 μmol/kg.
For measurements, the following protocol was utilized. Six animals were used in each run. For any given measure (e.g., time point), one foot of each of the 6 animals was tested and then the process was repeated for the opposite foot. Mean values for the response were then computed based on the two scores.

[2] = target: T1, neuronal nicotinic acetylcholine receptors (Rattus norvegicus, UniProt P09483+P12390); experiment: [3H]-cytisine binding to neuronal nicotinic acetylcholine receptors, whole rat brain membranes; conditions: [3H]-cytisine 1.25 nM, whole rat brain membranes; read-out: [3H] CYT Ki
T1 construct: crude synaptic membrane preparations from whole rat brain; from tissue; host or cells: whole rat brain, crude synaptic membranes
T1 sequence (P09483 31-630): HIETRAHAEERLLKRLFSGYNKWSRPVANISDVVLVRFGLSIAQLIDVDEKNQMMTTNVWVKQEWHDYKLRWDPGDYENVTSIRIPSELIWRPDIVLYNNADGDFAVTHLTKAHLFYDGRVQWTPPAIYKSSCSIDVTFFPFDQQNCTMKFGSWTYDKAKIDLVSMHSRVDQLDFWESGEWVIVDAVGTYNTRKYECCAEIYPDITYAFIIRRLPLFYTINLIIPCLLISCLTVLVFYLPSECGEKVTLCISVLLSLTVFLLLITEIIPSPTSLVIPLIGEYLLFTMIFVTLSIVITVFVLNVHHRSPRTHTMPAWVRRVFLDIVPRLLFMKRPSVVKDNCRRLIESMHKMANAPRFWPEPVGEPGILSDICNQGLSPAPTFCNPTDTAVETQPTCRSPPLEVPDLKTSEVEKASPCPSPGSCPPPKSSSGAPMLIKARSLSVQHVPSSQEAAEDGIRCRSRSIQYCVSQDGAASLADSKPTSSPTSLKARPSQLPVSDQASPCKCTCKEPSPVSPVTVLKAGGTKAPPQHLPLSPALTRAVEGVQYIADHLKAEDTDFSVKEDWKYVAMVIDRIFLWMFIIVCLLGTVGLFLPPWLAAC
T1 sequence (P12390 25-500): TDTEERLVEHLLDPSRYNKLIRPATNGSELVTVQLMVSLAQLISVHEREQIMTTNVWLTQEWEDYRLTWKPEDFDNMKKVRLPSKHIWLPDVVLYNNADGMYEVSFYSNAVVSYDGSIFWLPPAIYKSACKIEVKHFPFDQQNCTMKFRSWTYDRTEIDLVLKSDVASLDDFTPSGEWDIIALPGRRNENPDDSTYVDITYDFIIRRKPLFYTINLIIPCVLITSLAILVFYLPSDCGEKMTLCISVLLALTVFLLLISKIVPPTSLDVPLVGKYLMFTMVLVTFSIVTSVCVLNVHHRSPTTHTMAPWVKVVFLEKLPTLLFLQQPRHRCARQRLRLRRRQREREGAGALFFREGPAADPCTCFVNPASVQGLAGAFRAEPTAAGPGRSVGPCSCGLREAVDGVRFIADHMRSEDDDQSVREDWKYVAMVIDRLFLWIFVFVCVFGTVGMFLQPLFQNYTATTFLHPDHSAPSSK
Experimental: Protocol for Determination of Nicotinic Acetylcholine Channel Receptor Binding Potencies of Ligands
Binding of [^3H]-cytisine ([^3H]-CYT) to neuronal nicotinic acetylcholine receptors was accomplished using crude synaptic membrane preparations from whole rat brain (Pabreza et al., Molecular Pharmacol., 1990, 39:9). Washed membranes were stored at −80° C. prior to use. Frozen aliquots were slowly thawed and resuspended in 20 volumes of buffer (containing: 120 mM NaCl, 5 mM KCl, 2 mM MgCl2, 2 mM CaCl2 and 50 mM Tris-Cl, pH 7.4 @4° C.). After centrifuging at 20,000×g for 15 minutes, the pellets were resuspended in 30 volumes of buffer. Homogenate (containing 125-150 μg protein) was added to triplicate tubes containing concentrations of test compound and [^3H]-CYT (1.25 nM) in a final volume of 500 μL. Samples were incubated for 60 minutes at 4° C., then rapidly filtered through Whatman GF/B filters presoaked in 0.5% polyethyleneimine using 3×4 mL of ice-cold buffer. The filters are counted in 4 mL of Ecolume® (ICN). Nonspecific binding was determined in the presence of 10 μM (−)-nicotine and values were expressed as a percentage of total binding.

rats [3] = experiment: Chung Model of Neuropathic Pain; type: in vivo; design: key: NS = no significant effect observed relative to saline controls at the doses tested; conditions: rat, 50% threshold to VonFrey hairs
mice = experiment: Mouse Hot Plate Paradigm; type: in vivo; conditions: 30 minutes prior to testing, 55° C.; for minimal effective dose: ip, 0.5 h, i.p., read-out: MED Hot plate model (μmol/kg, i.p.)
[4] = target: T2, peripheral ganglionic receptors (Homo sapiens, UniProt P30926+P32297); experiment: 86Rb+ flux activation in IMR-32 human neuroblastoma cells; type: cell-based; conditions: 1 μM compound, % of maximum response to (S)-nicotine
T2 construct: Cells of the IMR-32 human neuroblastoma clonal cell line (ATCC, Rockville, Md.); host or cells: IMR-32 human neuroblastoma cells
T2 sequence (P32297 32-505): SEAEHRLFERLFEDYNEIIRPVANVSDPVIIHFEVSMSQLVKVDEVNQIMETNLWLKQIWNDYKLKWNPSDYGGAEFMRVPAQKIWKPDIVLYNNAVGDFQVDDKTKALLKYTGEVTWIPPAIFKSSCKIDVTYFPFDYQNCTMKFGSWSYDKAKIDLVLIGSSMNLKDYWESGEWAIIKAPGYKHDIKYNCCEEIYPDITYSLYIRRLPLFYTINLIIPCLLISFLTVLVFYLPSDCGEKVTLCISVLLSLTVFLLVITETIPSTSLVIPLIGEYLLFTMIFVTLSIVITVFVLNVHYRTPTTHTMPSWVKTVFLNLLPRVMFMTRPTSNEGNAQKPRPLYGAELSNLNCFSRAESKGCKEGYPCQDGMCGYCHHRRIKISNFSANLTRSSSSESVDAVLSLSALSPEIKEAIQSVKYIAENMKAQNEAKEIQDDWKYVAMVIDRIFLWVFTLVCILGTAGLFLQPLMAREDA
T2 sequence (P30926 22-498): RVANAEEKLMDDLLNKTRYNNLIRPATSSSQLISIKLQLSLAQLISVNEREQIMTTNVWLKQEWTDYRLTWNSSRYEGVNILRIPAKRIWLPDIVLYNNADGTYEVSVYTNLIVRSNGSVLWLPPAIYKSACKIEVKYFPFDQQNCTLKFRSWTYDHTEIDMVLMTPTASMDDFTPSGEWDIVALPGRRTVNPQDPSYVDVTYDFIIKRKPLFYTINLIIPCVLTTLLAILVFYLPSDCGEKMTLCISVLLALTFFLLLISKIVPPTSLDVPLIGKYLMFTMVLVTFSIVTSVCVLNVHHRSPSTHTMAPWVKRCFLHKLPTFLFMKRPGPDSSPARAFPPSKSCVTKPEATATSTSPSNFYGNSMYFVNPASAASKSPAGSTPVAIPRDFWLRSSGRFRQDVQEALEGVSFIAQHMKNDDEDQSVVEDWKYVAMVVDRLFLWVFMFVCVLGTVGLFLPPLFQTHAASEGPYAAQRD
Experimental: Protocol for the Determination of Ability of Nicotinic Acetylcholine Receptor Ligands to Activate Peripheral Ganglionic Receptors
Cells of the IMR-32 human neuroblastoma clonal cell line (ATCC, Rockville, Md.) were maintained in a log phase of growth according to established procedures. Experimental cells were seeded at a density of 500,000 cells/mL into a 24-well tissue culture dish. Plated cells were allowed to proliferate for at least 48 hours before loading with 2 μCi/mL of ^86Rb^+ (35 Ci/mmol) overnight at 37° C. The ^86Rb^+ efflux assays were performed according to previously published protocols (Lukas, R. J., J. Pharmacol. Exp. Ther., 265: 294-302, 1993) except serum-free Dulbecco's Modified Eagle's Medium was used during the ^86Rb^+ loading, rinsing, and agonist-induced efflux steps. Data reflect the activation of ^86Rb^+ flux at a concentration of 1 μM, and reflect the response as a percentage of the maximum response elicited by (S)-nicotine.

rat spinal cord cultures = experiment: Neuroprotection against substance P or glutamate toxicity in primary spinal cord cultures (LDH release); type: cell-based
[5] = target: neuromuscular junction nicotinic acetylcholine receptor (Tetronarce californica, UniProt P02710+P02714+P02718); experiment: biochemical; type: binding, Torpedo Californica; conditions: read-out: Ki (nM) α-bungarotoxin
Sequence of neuromuscular junction nicotinic acetylcholine receptor (P02714 18-506): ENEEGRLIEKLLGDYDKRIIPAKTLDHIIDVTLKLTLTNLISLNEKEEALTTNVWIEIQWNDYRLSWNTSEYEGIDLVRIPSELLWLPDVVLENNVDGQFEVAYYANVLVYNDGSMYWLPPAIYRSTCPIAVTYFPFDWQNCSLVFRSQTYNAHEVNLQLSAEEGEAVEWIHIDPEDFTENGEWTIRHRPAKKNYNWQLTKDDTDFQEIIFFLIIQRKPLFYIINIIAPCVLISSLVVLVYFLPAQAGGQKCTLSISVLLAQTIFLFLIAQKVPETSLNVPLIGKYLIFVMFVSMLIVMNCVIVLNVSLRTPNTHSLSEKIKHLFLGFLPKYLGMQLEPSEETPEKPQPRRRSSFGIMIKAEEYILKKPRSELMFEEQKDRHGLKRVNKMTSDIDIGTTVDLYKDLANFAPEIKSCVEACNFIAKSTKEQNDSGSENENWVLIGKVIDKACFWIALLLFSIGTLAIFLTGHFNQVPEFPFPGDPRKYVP
Sequence of neuromuscular junction nicotinic acetylcholine receptor (P02710 25-461): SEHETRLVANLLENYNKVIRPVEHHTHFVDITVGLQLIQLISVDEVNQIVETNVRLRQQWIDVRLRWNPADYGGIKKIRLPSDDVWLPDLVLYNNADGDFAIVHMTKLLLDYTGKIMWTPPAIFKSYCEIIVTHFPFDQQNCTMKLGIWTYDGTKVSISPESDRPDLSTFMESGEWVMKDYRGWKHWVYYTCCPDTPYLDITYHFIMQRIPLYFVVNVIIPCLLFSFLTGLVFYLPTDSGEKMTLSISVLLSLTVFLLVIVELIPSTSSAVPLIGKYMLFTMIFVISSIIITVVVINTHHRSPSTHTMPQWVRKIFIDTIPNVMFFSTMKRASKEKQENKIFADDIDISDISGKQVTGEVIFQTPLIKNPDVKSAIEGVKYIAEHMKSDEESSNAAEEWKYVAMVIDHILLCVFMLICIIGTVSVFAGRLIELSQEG
Sequence of neuromuscular junction nicotinic acetylcholine receptor (P02712 25-493, further chain): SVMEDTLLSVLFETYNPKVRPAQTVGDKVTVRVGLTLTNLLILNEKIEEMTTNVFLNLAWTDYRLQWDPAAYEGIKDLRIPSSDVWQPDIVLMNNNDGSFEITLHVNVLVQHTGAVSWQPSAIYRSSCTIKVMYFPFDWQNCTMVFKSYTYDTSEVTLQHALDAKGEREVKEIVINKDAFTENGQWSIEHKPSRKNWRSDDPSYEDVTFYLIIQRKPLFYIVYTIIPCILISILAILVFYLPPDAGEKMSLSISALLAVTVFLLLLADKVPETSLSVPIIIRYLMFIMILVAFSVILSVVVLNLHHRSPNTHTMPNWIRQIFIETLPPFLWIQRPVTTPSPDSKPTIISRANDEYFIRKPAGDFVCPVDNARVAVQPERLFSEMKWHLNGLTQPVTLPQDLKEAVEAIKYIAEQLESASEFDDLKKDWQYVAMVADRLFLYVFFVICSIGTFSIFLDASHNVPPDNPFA
Sequence of neuromuscular junction nicotinic acetylcholine receptor (P02718 22-522): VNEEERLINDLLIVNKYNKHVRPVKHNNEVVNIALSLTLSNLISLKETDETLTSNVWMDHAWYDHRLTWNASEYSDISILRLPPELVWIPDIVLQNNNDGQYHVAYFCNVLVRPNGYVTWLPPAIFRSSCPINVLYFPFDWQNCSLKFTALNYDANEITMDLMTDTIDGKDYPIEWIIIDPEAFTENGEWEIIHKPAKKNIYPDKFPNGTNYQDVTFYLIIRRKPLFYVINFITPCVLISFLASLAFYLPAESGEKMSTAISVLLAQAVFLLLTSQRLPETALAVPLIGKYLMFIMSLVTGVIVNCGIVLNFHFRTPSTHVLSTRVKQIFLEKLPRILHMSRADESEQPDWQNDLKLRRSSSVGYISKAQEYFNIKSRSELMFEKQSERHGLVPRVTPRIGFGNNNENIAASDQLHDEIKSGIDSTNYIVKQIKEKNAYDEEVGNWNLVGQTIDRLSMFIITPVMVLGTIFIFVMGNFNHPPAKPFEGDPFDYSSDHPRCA

rats [6] = experiment: Carrageenan paw edema model; type: in vivo; conditions: rat

## Clc1ccc(OC[C@H]2CCN2)cn1 [Example 1, 5-((2R)-Azetidinylmethoxy)-2-chloropyridine]
Beagle dogs
  Increase in Diastolic Blood Pressure (mm Hg): 23.2 ± 4.6 mm Hg
  Increase in Heart Rate (beats/min): 7.8 ± 2.9 beats/min
  blood pressure increase as fraction of that seen with Example 19: ⅓
  heart rate increase as fraction of that seen with Example 19: ⅓

## C[C@H](NC(=O)OC(C)(C)C)C(=O)N1CC[C@@H]1COc1ccc(F)nc1 [Example 54]
Rats [1]
  analgesic dose: >6.2 µmol/kg

## O=C1c2ccccc2C(=O)N1CN1CC[C@@H]1COc1ccc(F)nc1 [Example 72]
Rats [1]
  analgesic dose: 0.62 µmol/kg

## COc1ccc(OC(=O)N2CC[C@@H]2COc2ccc(F)nc2)cc1 [Example 81]
Rats [1]
  analgesic dose: 0.62 µmol/kg

## Clc1ncc(OC[C@@H]2CCN2)cc1Br [Example 17, 5-((2S)-azetidinylmethoxy)-3-bromo-2-chloropyridine hydrochloride]
[2]
  Ki: 0.02 nM
Rats [3]
  MED Chung model (μmol/kg, i.p.): 0.19 µmol/kg
mice
  minimal effective dose: 1.9 µmol/kg
[4]
  IMR-32 % maximal nicotine response at 1 μM Cmpd conc'n: 120%

## Fc1cncc(OC[C@@H]2CCN2)c1 [Example 10, 5-((2S)-Azetidinylmethyloxy)-3-fluoropyridine dihydrochloride]
[2]
  Ki: 0.09 nM
Rats [3]
  MED Chung model (μmol/kg, i.p.): 0.62 µmol/kg
mice
  minimal effective dose: 6.2 µmol/kg
[4]
  IMR-32 % maximal nicotine response at 1 μM Cmpd conc'n: 28%

## Clc1cc(OC[C@@H]2CCN2)cnc1Cl [Example 15, 5-((2S)-azetidinylmethoxy)-2,3-dichloropyridine hydrochloride]
[2]
  Ki: 0.02 nM
Rats [3]
  MED Chung model (μmol/kg, i.p.): NS
mice
  minimal effective dose: 1.9 µmol/kg
[4]
  IMR-32 % maximal nicotine response at 1 μM Cmpd conc'n: 117%

## Cl.Cl.Clc1ccc(OC[C@@H]2CCN2)cn1 [Example 19, 5-((2S)-Azetidinylmethyloxy)-2-chloropyridine dihydrochloride]
Beagle dogs
  Increase in Diastolic Blood Pressure (mm Hg): 67.3 ± 3.2 mm Hg
  Increase in Heart Rate (beats/min): 26.0 ± 7.8 beats/min
[2]
  Ki: 0.04 nM
Rats [3]
  MED Chung model (μmol/kg, i.p.): 0.3 µmol/kg
Rat spinal cord cultures; relative to compound of Example 4
  less potent as a neuroprotectant in spinal cord: 10 fold
mice
  MED Hot plate model (μmol/kg, i.p.): 0.62 µmol/kg
[5]
  Ki: 1300 nM
[4]
  IMR-32 % maximal nicotine response at 1 μM Cmpd conc'n: 173%

## O=C(Oc1ccc([N+](=O)[O-])cc1)N1CC[C@@H]1COc1ccc(F)nc1 [Example 80]
Rats [1]
  analgesic dose: 0.62 µmol/kg

## O=C1CCC(=O)N1CN1CC[C@@H]1COc1ccc(F)nc1 [Example 71]
Rats [1]
  analgesic dose: 0.62 µmol/kg

## O=C(CCSSCCC(=O)N1CC[C@@H]1COc1ccc(F)nc1)N1CC[C@@H]1COc1ccc(F)nc1 [Example 95]
Rats [1]
  analgesic dose: >6.2 µmol/kg

## Clc1cc(OC[C@H]2CCN2)cnc1Cl [Example 16, 5-((2R)-azetidinylmethoxy)-2,3-dichloropyridine hydrochloride]
[2]
  Ki: 0.06 nM
Rats [3]
  MED Chung model (μmol/kg, i.p.): 0.19 µmol/kg
mice
  minimal effective dose: 6.2 µmol/kg
[4]
  IMR-32 % maximal nicotine response at 1 μM Cmpd conc'n: 85%

## O=C(N1CCCC1)N1CC[C@@H]1COc1ccc(F)nc1 [Example 92]
Rats [1]
  analgesic dose: >6.2 µmol/kg

## Cl.Fc1ncccc1OC[C@@H]1CCN1 [Example 122, 2-Fluoro-3-(2(S)-azetidinylmethoxy)pyridine hydrochloride]
Rats [3]
  MED Chung model (μmol/kg, i.p.): 1.9 µmol/kg

## O=C(Oc1ccccc1)N1CC[C@@H]1COc1ccc(F)nc1 [Example 79]
Rats [1]
  analgesic dose: 0.62 µmol/kg

## CC1(C)CC(=O)C=C(N2CC[C@@H]2COc2ccc(F)nc2)C1 [Example 75]
Rats [1]
  analgesic dose: 6.2 µmol/kg

## CNC1(C)C2CCC(C2)C1(C)C (centres unmarked) [mecamylamine, reference compound]
Rats [6]
  prevention of the paw edema effect of Example 4 by nicotinic antagonist: prevented
Rats [6]; listed as mecaamylamine
  prevention of the paw edema effect of Example 4 by nicotinic antagonist: prevents this effect
Rat spinal cord cultures; mecamylamine 10 μM, MLA 10 nM, α-BTX 1 nM
  block of the neuroprotective effect by nicotinic antagonists: blocked
